Test [1] has as its system AML cells. In words: Growth inhibition of AML cells in vitro. Type of test: cell-based, human. Particulars: single fraction, dose 100 μg/ml, 48 hrs. The procedure: (§1) Whole blood (10 ml) was drawn from a previously diagnosed CD33+ myeloid leukemic patient and mononuclear cells were separated by Ficoll/hypaqal density gradient centrifugation.
(§2) Incubation of PBMC of myeloid leukemia patients with purified compound 3-O-p-coumaryl quinic acid in vitro. PBMC (2×10^6/ml) of myeloid leukemia patients were incubated with varied concentrations of purified compound for 48 h. Cells were then washed, and counted for viability.
Incubation of myeloid leukemic cells with fractions having retention time 3.60 (fraction-1) and 24.00 min (fraction 9). PBMC of myeloid leukemic patients were incubated with above-mentioned fractions, alone or in combination of the two for 48 hrs. Cells were then washed and counted for viability.

Test [2] deals with CD33+ myeloid leukemia cells. The test is described as follows: Destruction of CD33+ myeloid leukemia cells (patient PBMC) in vitro, viability count and flow cytometry. Type of test: cell-based, human. Conditions: purified compound, varied concentrations, 48 h. The procedure:
as §1
Incubation of PBMC of myeloid leukemia patients with crude Piper betel extract. PBMC (2×10^6/ml) of myeloid leukemia patients were incubated with Piper betel extract (10.0 mg/ml) for 48 hours and then washed and counted for viability.
Incubation of PBMC of myeloid leukemia patients with fraction E in vitro. PBMC (2×10^6/ml) of myeloid leukemia patients were incubated with varied concentrations of fraction E for 48 hours. Cells were then washed and counted for viability.
as §2
Flow cytometry of myeloid leukemia cells; Myeloid leukemia cells before and after in vitro incubation with crude Piper betel extract, purified fraction E or purified 3-O-p-coumaryl quinic acid were marked with anti-CD33-FITC and anti-CD13-PE monoclonal antibodies. Cells were then analysed in a flow cytometer (FACS Calibur, Bection Dickinson, USA).
On the technique in general: Flow cytometry measures light scatter and fluorescence of single cells or particles in a stream.

Each structure is given as a SMILES string.

Broadly, the % Inhibition of growth is the percentage by which the read-out fell short of the control. Consider `O=C(C=Cc1ccc(O)cc1)OC1CC(O)(C(=O)O)CC(O)C1O` (centres unmarked) [3-O-p-coumaryl quinic acid], for which the “% Inhibition of growth” value in test [1] is 54.00%. Moreover, the “effect on PBMC of CD33+ myeloid leukemia patients (both AML and CML)” value in test [2] was “destroyed”.

Source of the values: patent US7306817B2, “Herbal composition for treating CD33+ acute and chronic myeloid leukemia and a method thereof” (Council of Scientific and Industrial Research, priority 2000, dated 2007).
